{"source": "patent US20160033699A1", "about": "“POLARIZING PLATE” (NITTO DENKO CORPORATION, priority 2014, published 2016)"}
{"test": "log P value (octanol/water partition coefficient)", "settings": "not given"}
{"compound": "CSc1ccc(C(=O)C(C)(C)N2CCOCC2)cc1", "note": "[IRGACURE 907, 2-methyl-1-(4-methylthiophenyl)-2-morpholinopropan-1-one]", "logP": 2.09}
{"test": "log P value (octanol/water partition coefficient)", "settings": "octanol/water"}
{"compound": "C=CC(=O)OCCCCCCCCCCOC(=O)C=C", "note": "[1,10-decanediol diacrylate]", "logP": 4.1}
{"test": "log P value (octanol/water partition coefficient)", "settings": "octanol/water partition coefficient"}
{"compound": "CCc1cc(CC)c2sc3ccccc3c(=O)c2c1", "note": "[KAYACURE DETX-S, diethylthioxanthone]", "log P": 5.12}
{"compound": "bisphenol A di(meth)acrylate", "log P": 5.46}
{"compound": "bisphenol A-propylene oxide (2 mole) adduct di(meth)acrylate", "log P": 6.10}
{"compound": "bisphenol A-propylene oxide (4 mole) adduct di(meth)acrylate", "log P": 6.43}
{"compound": "neopentyl glycol hydroxypivalate-(meth)acrylic acid adduct", "log P": 3.35}
{"compound": "p-phenylphenol (meth)acrylate", "log P": 3.98}
{"compound": "tricyclodecanedimethanol diacrylate [LIGHT ACRYLATE DCP-A]", "log P": 3.05}
